Each structure is given as a SMILES string. A value given as a limit tells only on which side of the number the result lay.

In this assay the target is T1, MAPKAPK2 Recombinant Human Protein (Homo sapiens, UniProt P49137).
T1 construct: purchased ThermoFisher pv3317
T1 sequence (P49137 whole entry): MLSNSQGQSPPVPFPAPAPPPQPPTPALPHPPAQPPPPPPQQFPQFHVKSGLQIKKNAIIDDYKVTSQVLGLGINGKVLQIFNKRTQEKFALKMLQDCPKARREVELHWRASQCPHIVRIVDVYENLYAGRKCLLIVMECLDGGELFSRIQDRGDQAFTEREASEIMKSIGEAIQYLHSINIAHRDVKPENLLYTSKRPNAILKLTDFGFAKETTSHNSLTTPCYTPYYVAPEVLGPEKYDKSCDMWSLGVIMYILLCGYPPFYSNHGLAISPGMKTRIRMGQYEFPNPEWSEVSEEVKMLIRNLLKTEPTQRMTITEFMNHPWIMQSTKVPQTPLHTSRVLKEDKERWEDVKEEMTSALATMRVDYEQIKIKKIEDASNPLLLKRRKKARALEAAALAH
Put plainly: MK2 kinase assay (Z'-LYTE kinase assay kit). The settings on record: inhibition of MK2 biochemical activity; 90 min incubation at room temperature. As to the method:
Materials and Reagents for Measuring Inhibition of MK2 Biochemical Activity: • 1) Assay plate: 384 Well Low Volume Black Round Bottom Polystyrene NBS Microplate (Corning, Cat.No. 4514) • 2) MK2 kinase assay kit: Z' LYTE KINASE ASSAY KIT (ThermoFisher, Cat.No. pv3177) • 3) MAPKAPK2 Recombinant Human Protein (ThermoFisher, Cat.No. pv3317) • 4) DMSO (Vetec, Cat.No. V900090) • 5) DTT (Sigma, Cat.No. D0632)
MK2 Kinase Assay Procedure: • 1) Dispense 5 μl Kinase/Peptide Mixture to each wells of 384-well plate • 2) Add 2.5 μl 4× Test Compound to each well • 3) Add 2.5 μl 4× ATP Solution to each well • 4) After 90 minutes incubation at room temperature, add 5 μl Development Solution to each well • 5) After 60 minutes incubation at room temperature, add 5 μl stop Solution to each well • 6) Measure the Coumarin (Ex. 400 nm, Em. 445 nm) and Fluorescein (Ex. 400 nm, Em. 520 nm) emission signals on an Envision plate reader (PerkinElmer)
Usually IC50 stands for the point on the concentration scale where inhibition reaches its midpoint. With `N#Cc1ccc(-c2cc3n(c2)Cc2cc(N4C[C@@H](C5(N)CC5)CC4=O)ccc2-n2ccnc2-3)cc1` (stereo in doubt) [Example 49, (S)-4-(7-(4-(1-aminocyclopropyl)-2-oxopyrrolidin-1-yl)-9H-benzo[e]imidazo [2,1-c]pyrrolo[1,2-a][1,4]diazepin-12-yl)benzonitrile], the IC50 is less than 50 nM.
Regarding `N#Cc1ccc(-c2cc3n(c2)Cc2cc(N4C[C@@H](CN)OC4=O)ccc2-n2ccnc2-3)cc1` [Example 2], the IC50 lay within 50 to 100 nM.
Under `C[N+](C)(C)C[C@H]1CC(=O)N(c2ccc3c(c2)Cn2cc(-c4ccc(C#N)cc4)cc2-c2nccn2-3)C1` [Example 18, (S)-1-(1-(12-(4-cyanophenyl)-9H-benzo[e]imidazo[2,1-c]pyrrolo[1,2-a][1,4]diazepin-7-yl)-5-oxopyrrolidin-3-yl)-N,N,N-trimethylmethanaminium iodide] stands 50 to 100 nM.
To `CC(C)(N)C1CN(c2ccc3c(c2)Cn2cc(-c4ccc(C#N)cc4)cc2-c2nccn2-3)C(=O)O1` (stereo not shown) [Example 20] belongs less than 50 nM; to `N#Cc1ccc(-c2cc3n(c2)Cc2cc(N4CCN(C5CC5)CC4=O)ccc2-n2ccnc2-3)cc1` [Example 31, 4-(7-(4-Cyclopropyl-2-oxopiperazin-1-yl)-9H-benzo[e]imidazo[2,1-c]pyrrolo [1,2-a][1,4]diazepin-12-yl)benzonitrile], 50 to 100 nM.
Regarding `N#Cc1ccc(-c2cc3n(c2)Cc2cc(N4C[C@@H](N)CC4=O)ccc2-n2ccnc2-3)cc1` [Example 32, (S)-4-(7-(4-Amino-2-oxopyrrolidin-1-yl)-9H-benzo[e]imidazo[2,1-c]pyrrolo [1,2-a][1,4]diazepin-12-yl)benzonitrile], the IC50 was in the range of 50 to 100 nM.
In the case of `[2H]C([2H])([2H])N(C([2H])([2H])[2H])C([2H])([2H])C1CCN(c2ccc3c(c2)Cn2cc(-c4ccc(C#N)cc4)cc2-c2nccn2-3)C1=O` (stereo not shown) [Example 38, 4-(7-(3-((Dideuteratedmethylamino)deuteratedmethyl)-2-oxopyrrolidin-1-yl)-9H-benzo[e]imidazo[2,1-c]pyrrolo[1,2-a][1,4]diazepin-12-yl)benzonitrile], the IC50 is less than 50 nM.
On to `CN(C)CC1(C)CCN(c2ccc3c(c2)Cn2cc(-c4ccc(C#N)cc4)cc2-c2nccn2-3)C1=O` (stereo not shown) [Example 39, 4-(7-(3-((Dimethylamino)methyl)-3-methyl-2-oxopyrrolidin-1-yl)-9H-benzo[e]imidazo[2,1-c]pyrrolo[1,2-a][1,4]diazepin-12-yl)benzonitrile], for which the IC50 lay in the range of 100 to 200 nM.
Under `CN(C)CCC1CCN(c2ccc3c(c2)Cn2cc(-c4ccc(C#N)cc4)cc2-c2nccn2-3)C1=O` (stereo not shown) [Example 40, 4-(7-(3-(2-(Dimethylamino)ethyl)-2-oxopyrrolidin-1-yl)-9H-benzo[e]imidazo [2,1-c]pyrrolo[1,2-a][1,4]diazepin-12-yl)benzonitrile] stands less than 50 nM; under `CC(C)(N)C1CCN(c2ccc3c(c2)Cn2cc(-c4ccc(C#N)cc4)cc2-c2nccn2-3)C1=O` (stereo not shown) [Example 44, 4-(7-(3-(2-Aminopropan-2-yl)-2-oxopyrrolidin-1-yl)-9H-benzo[e]imidazo [2,1-c]pyrrolo[1,2-a][1,4]diazepin-12-yl)benzonitrile], 50 to 100 nM.
With `CN(C)C[C@@H]1[C@@H]2CN(c3ccc4c(c3)Cn3cc(-c5ccc(C#N)cc5)cc3-c3nccn3-4)C(=O)[C@H]12` [Example 45, 4-(7-((1R,5S,6R)-6-((Dimethylamino)methyl)-2-oxo-3-azabicyclo[3.1.0]hexan-3-yl)-9H-benzo[e]imidazo[2,1-c]pyrrolo[1,2-a][1,4]diazepin-12-yl)benzonitrile], the IC50 lay in the range of 50 to 100 nM.
As to `CC(C)(N)C1CC(=O)N(c2ccc3c(c2)Cn2cc(-c4ccc(C#N)cc4)cc2-c2nccn2-3)C1` (stereo not shown) [Example 51], the IC50 was less than 50 nM.
As for `CC(C)(N)[C@H]1CC(=O)N(c2ccc3c(c2)Cn2cc(-c4ccc(C#N)cc4)cc2-c2nccn2-3)C1` [Example 52], the IC50 is less than 50 nM.

(Values after patent US20240140958A1, “FUSED QUADRACYCLIC COMPOUNDS, COMPOSITIONS AND USES THEREOF” (Tabomedex Biosciences, Inc., priority 2021, published 2024).)
